Results as given in patent US7037647B1, “Prostate-specific membrane antigen and uses thereof” (Sloan-Kettering Institute for Cancer Research, priority 1995, dated 2006).
Where two headings read alike, the source gives them in different places.

What was measured:
[1] = test system: PSM mRNA expression in LNCaP cells; experiment: Steroid modulation of PSM mRNA expression, ribonuclease protection assay; format: cell-based, human; conditions: 24 hours; for downregulation of PSM mRNA expression: charcoal-extracted serum media, steroid 2 nM; for effect on PSM mRNA expression (in words): physiologic doses of steroids
Source text: A portion of the PSM cDNA was subcloned into the plasmid vector pSPORT 1 (Gibco-BRL) and the orientation of the cDNA insert relative to the flanking T7 and SP6 RNA polymerase promoters was verified by restriction analysis. Linearization of this plasmid upstream of the PSM insert followed by transcription with SP6 RNA polymerase yields a 400 nucleotide antisense RNA probe, of which 350 nucleotides should be protected from RNase digestion by PSM RNA. This probe was used in FIG. 20. Plasmid IN-20, containing a 1 kb partial PSM cDNA in the plasmid pCR II (Invitrogen) was also used for riboprobe synthesis. IN-20 linearized with Xmn I (Gibco-BRL) yields a 298 nucleotide anti-sense RNA probe when transcribed using SP6 RNA polymerase, of which 260 nucleotides should be protected from RNase digestion by PSM mRNA. This probe was used in FIGS. 21 and 22. Probes were synthesized using SP6 RNA polymerase (Gibco-BRL), rNTPs (Gibco-BRL), RNAsin (Promega), and ^32P-rCTP (NEN, Wilmington, Del.) according to published protocols (13). Probes were purified over NENSORB 20 purification columns (NEN) and approximately 1 million cpm of purified, radiolabeled PSM probe was mixed with 10μ of each RNA and hybridized overnight at 45 C using buffers and reagents from the RPA II kit (Ambion, Austin, Tex.). Samples were processed as per manufacturer's instructions and analyzed on 5% polyacrilamide/7M urea denaturing gels using Seq ACRYL reagents (ISS, Natick, Mass.). Gels were pre-heated to 55 C and run for approximately 1-2 hours at 25 watts. Gels were then fixed for 30 minutes in 10% methanol/10% acetic acid, dried onto Whatman 3MM paper at 80 C in a BioRad vacuum dryer and autoradiographed overnight with Hyperfilm MP (Amersham). Quantitation of PSM expression was determined by using a scanning laser densitometer (LKB, Piscataway, N.J.).
LNCaP cells (2 million) were plated onto T-75 flasks in RPMI 1640 media supplemented with 5% fetal calf serum and grown 24 hours until approximately 30-40% confluent. Flasks were then washed several times with phophate-buffered saline and RPMI medium supplemented with 5% charcoal-extracted serum was added. Cells were then grown for another 24 hours, at which time dihydrotesterone, testosterone, estradiol, progesterone, and dexamethasone (Steraloids Inc., Wilton, N.H.) were added at a final concentration of 2 nM. Cells were grown for another 24 hours and RNA was then harvested as previously described and PSM expression analyzed by ribonuclease protection analysis.

[2] = target: T1, PSM enzyme (folate hydrolase) (Homo sapiens, UniProt Q04609); format: biochemical; conditions: for hydrolysis as substrate by the PSM enzyme (in words): LNCaP membrane preparations
T1 construct: membrane preparations from androgen-sensitive human prostatic carcinoma cells (LNCaP); endogenous in cells; host or cells: LNCaP cell membranes
T1 sequence (Q04609 whole entry): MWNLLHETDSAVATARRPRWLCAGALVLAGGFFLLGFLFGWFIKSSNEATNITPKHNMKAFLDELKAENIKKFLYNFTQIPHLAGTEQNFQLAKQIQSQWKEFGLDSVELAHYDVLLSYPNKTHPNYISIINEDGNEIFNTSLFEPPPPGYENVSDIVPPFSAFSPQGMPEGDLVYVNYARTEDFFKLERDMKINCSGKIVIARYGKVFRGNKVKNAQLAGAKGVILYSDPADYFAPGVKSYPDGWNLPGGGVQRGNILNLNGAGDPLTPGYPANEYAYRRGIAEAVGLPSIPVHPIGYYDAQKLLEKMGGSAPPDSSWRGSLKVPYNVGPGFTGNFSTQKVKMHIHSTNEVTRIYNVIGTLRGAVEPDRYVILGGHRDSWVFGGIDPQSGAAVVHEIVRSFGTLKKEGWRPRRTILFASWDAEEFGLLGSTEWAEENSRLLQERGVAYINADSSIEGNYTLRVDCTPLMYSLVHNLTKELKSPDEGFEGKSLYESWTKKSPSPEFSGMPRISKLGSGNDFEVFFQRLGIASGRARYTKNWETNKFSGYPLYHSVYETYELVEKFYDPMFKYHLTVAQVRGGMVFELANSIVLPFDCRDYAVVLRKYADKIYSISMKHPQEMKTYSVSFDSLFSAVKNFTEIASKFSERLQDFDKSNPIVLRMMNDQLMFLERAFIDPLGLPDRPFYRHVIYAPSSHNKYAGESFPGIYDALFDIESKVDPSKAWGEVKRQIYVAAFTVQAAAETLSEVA
Source text: Using capillary electrophoresisis pteroyl poly-gamma-glutamate carboxypeptidase (hydrolase) activity was investigated in membrane preparations from androgen-sensitive human prostatic carcinoma cells (LNCaP).

[3] = target: T2, Prostate specific membrane antigen (Homo sapiens, UniProt Q04609); experiment: Inhibition of neuropeptidase activity (NAAG as substrate) of immunoprecipitated PSM; format: biochemical
T2 construct: Prostate specific membrane antigen was immuno precipitated from the prostate cancer cell line LNCaP; endogenous in cells; host or cells: LNCaP (immunoprecipitate)
T2 sequence (Q04609 whole entry): as above
Source text: PSM may have activities both as a folate hydrolase and a carboxyneuropeptidase. For the cytotoxic drug methotrexate to be a tumor toxin it has to get into the cell and be polygammaglutamated which to be active, because polyglutamated forms serve as the enzyme substrates and because polyglutamated forms or toxins are also retained by the cell. Folate hydrolase is a competing reaction and deglutamates methotrexate which then can diffuse back out of the cell. Cells that overexpose folate hydrolase activity are resistant to methotrexate. Prostate cancer has always been absolutely refractory to methotrexate therapy and this may explain why, since the prostate and prostate cancer has a lot of folate hydolase activity. However, based on this activity, prodrugs may be generated which would be activate at the site of the tumor such as N-phosphonoacetyl-1-aspartate-glutamate.
Folate is necessary for the support of cell function and growth and thus this enzyme may serve to modulate folate access to the prostate and prostate tumor. The other area where PSM is expressed is in the small intestine. It turns out that a key enzyme of the small intestine that is involved in folate uptake acts as a gamma-carboxypeptidase in sequentially proteolytically removing the terminal gammaglutaminyl group from folate. […]

[4] = test system: PSM mRNA expression in LNCaP cells; experiment: Modulation of PSM mRNA expression by cytokines and growth factors, Northern blot and laser densitometry; format: cell-based, human; conditions: 24 to 72 hours, 0.1 ng/ml to 100 ng/ml; for upregulation of PSM expression compared to untreated LNCaP: androgen-depleted media; for downregulation of PSM expression: androgen depleted LNCaP cells
Source text: Total RNA was extracted from the cells and PSM mRNA expression was quantitated by Northern blot analysis and laser densitometry.

PC-3 cells = experiment: Mitogenic response to transferrin, cell count; format: cell-based, human; conditions: 1 μg per ml holotransferrin, counted at 5 days
Method: 2×10^4 PC-3 or PSM-transfected PC-3 cells per well ere plated in RPMI medium supplemented with 10% fetal bovine serum and at 24 hrs. added 1 μg per ml. of holotransferrin to the cells. […] Cells were counted at 1 day to determine plating efficiency and at 5 days to determine the effect of the transferrin. Experiments were repeated to verify the results.

LNCaP cells = experiment: Mitogenic response to transferrin, cell count; format: cell-based, human
[5] = 0.05-0.5 mM, semi-purified membrane-bound enzyme

**Q.** How did the “doses at which maximal downregulation of PSM mRNA was seen” value [1] turn out when C[C@]12CCC(=O)C[C@@H]1CC[C@@H]1[C@@H]2CC[C@]2(C)[C@@H](O)CC[C@@H]12 [DHT, dihydrotesterone] was run?
**A.** Its value is 2 to 20 nM.

**Q.** And the “downregulation of PSM mRNA expression” value [1]?
**A.** The value was 8-10 fold.

**Q.** And the “effect on PSM mRNA expression (in words)” value [1]?
**A.** Its value is “significantly diminished PSM expression”.

**Q.** With CN(Cc1cnc2nc(N)nc(N)c2n1)c1ccc(C(=O)N[C@@H](CCC(=O)N[C@@H](CCC(=O)N[C@@H](CCC(=O)O)C(=O)O)C(=O)O)C(=O)O)cc1 [MTXGlu3, methotrexate triuglutamate] as the molecule, how does the “hydrolysis as substrate by the PSM enzyme (in words)” value [2] read?
**A.** The value was “liberates progressively glutamates”.

**Q.** For O=C(O)CC[C@H](NC(=O)[C@H](CC(=O)O)NC(=O)CP(=O)(O)O)C(=O)O [PALglu, N-phosphonoacetyl-1-aspartate-glutamate], which “inhibition of neuropeptidase activity (in words)” value ([3]; NAAG as a substrate) is on record?
**A.** The value was “is an inhibitor of the enzyme activity”.

**Q.** How did the “inhibition of enzymatic activity (in words)” value ([2]; ≧0.2 mM, semi-purified membrane-bound enzyme) turn out when O[C@@H](CS)[C@@H](O)CS [dithfothreitol] was run?
**A.** Its value is “weakly inhibited”.

**Q.** For N[C@@H](CCS)C(=O)O [homocysteine], which “inhibition of enzymatic activity (in words)” value [2, 5] is on record?
**A.** Its value is “not”.

**Q.** With O=C(O)c1cc[c]([Hg+])cc1.[OH-] [p-hydroxymercuribenzoate] as the molecule, how does the “inhibition of enzymatic activity (in words)” value [2, 5] read?
**A.** The value was “not”.

**Q.** For CC(=O)[C@H]1CC[C@H]2[C@@H]3CCC4=CC(=O)CC[C@]4(C)[C@H]3CC[C@]12C [progesterone], which “effect on PSM mRNA expression (in words)” value [1] is on record?
**A.** The value was “downregulated PSM expression”.

**Q.** And the “effect on PSM mRNA expression (in words)” value ([1]; listed as Progesterone)?
**A.** Its value is “significantly diminished PSM expression”.

**Q.** How did the “inhibition of enzymatic activity (in words)” value [2] turn out when N[C@@H](CCC(=O)N[C@@H](CS)C(=O)NCC(=O)O)C(=O)O [reduced glutathione] was run?
**A.** Its value is “not”.

**Q.** What does the source list for C[C@]12CC[C@H]3[C@@H](CCC4=CC(=O)CC[C@@]43C)[C@@H]1CC[C@@H]2O [testosterone]?
**A.** downregulation of PSM mRNA expression [1]: 3-4 fold; effect on PSM mRNA expression (in words) [1]: significantly diminished PSM expression

**Q.** With Penta-gammaglutamyl-folate as the molecule, how does the Ki ([3]; read-out: Ki, inhibition of the activity of the enzyme) read?
**A.** Its Ki is 500 nM.

**Q.** And the “hydrolysis as substrate by the PSM enzyme (in words)” value [2]?
**A.** The value was “liberates progressively glutamates”.

**Q.** “TGFα: growth factor, mitogenic for aggressive prostate cancer cells” was tested. Which “upregulation of PSM expression compared to untreated LNCaP” value [4] did it give?
**A.** Its value is 10 fold.

**Q.** With TNFα as the molecule, how does the “downregulation of PSM expression” value [4] read?
**A.** The value was 8 fold.

**Q.** How did the “upregulation of PSM expression compared to untreated LNCaP” value [4] turn out when b-FGF: growth factor was run?
**A.** The value was 10 fold.

**Q.** With “transferrin: holotransferrin added at 1 μg per ml to the cells” as the molecule, how does the “average increase in cell growth over controls” value (PC-3 cells) read?
**A.** The value was 275%.

**Q.** And the “stimulation of cell growth” value (LNCaP cells)?
**A.** Its value is 43%.

B1: TNFβ: cytokine (protein, UniProt P01374 35-205, looked up)
Lymphotoxin-alpha: LPGVGLTPSAAQTARQHPKMHLAHSTLKPAAHLIGDPSKQNSLLWRANTDRAFLQDGFSLSNNSLLVPTSGIYFVYSQVVFSGKAYSPKATSSPLYLAHEVQLFSSQYPFHVPLLSSQKMVYPGLQEPWLHSMYHGAAFQLTQGDQLSTHTDGIPHLVLSPSTVFFGAFAL
**Q.** How did the “downregulation of PSM expression” value [4] turn out when B1 was run?
**A.** Its value is 8 fold.
